In the supplement of paper PMC10307832:

Key:
Assay in all cases: relative viability (nuclei count vs DMSO), 5 days (fraction); higher = more cells survive
[1] = compound: COc1ccc(-c2ccc3c(N4CCOC[C@@H]4C)nc(N4CCOC[C@@H]4C)nc3n2)cc1CO [AZD8055] + CC1(C)CCC(c2ccc(Cl)cc2)=C(CN2CCN(c3ccc(C(=O)NS(=O)(=O)c4ccc(N[C@H](CCN5CCOCC5)CSc5ccccc5)c(S(=O)(=O)C(F)(F)F)c4)cc3)CC2)C1 [Navitoclax] (partner 0.5 µM)
Summary of the method: (§1)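 Medians of duplicate plates are given as relative viability. That measure is the nuclei count in treated wells divided by the count in vehicle wells. Counts were taken on 4× images of lung cancer cell lines in 1536-well plates, 5 days after pin-tool dosing the day after seeding with one drug alone or a fixed anchor-drug dose plus five library-drug doses (not always all listed) in √10 steps.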

[2] = compound: COc1ccc(-c2ccc3c(N4CCOC[C@@H]4C)nc(N4CCOC[C@@H]4C)nc3n2)cc1CO [AZD8055] + C[C@@H](Oc1cc(-c2cnn(C3CCNCC3)c2)cnc1N)c1c(Cl)ccc(F)c1Cl [Crizotinib] (partner 1 µM)
Summary of the method: as §1

[3] = compound: COc1ccc(-c2ccc3c(N4CCOC[C@@H]4C)nc(N4CCOC[C@@H]4C)nc3n2)cc1CO [AZD8055] + Cc1nc(Nc2ncc(C(=O)Nc3c(C)cccc3Cl)s2)cc(N2CCN(CCO)CC2)n1 [Dasatinib] (partner 0.075 µM)
Summary of the method: as §1

[4] = compound: COc1ccc(-c2ccc3c(N4CCOC[C@@H]4C)nc(N4CCOC[C@@H]4C)nc3n2)cc1CO [AZD8055] + O=C(CCCCCCC(=O)Nc1ccccc1)NO [Vorinostat] (partner 1 µM)
Summary of the method: as §1

Cell Line	relative viability ([1]; first compound 0.01 µM)	relative viability ([1]; first compound 0.03162 µM)	relative viability ([1]; first compound 0.1 µM)	relative viability ([1]; first compound 0.3162 µM)	relative viability ([1]; first compound 1 µM)	relative viability ([2]; first compound 0.01 µM)	relative viability ([2]; first compound 0.03162 µM)	relative viability ([2]; first compound 0.1 µM)	relative viability ([2]; first compound 0.3162 µM)	relative viability ([2]; first compound 1 µM)	relative viability ([3]; first compound 0.01 µM)	relative viability ([3]; first compound 0.03162 µM)	relative viability ([3]; first compound 0.1 µM)	relative viability ([3]; first compound 0.3162 µM)	relative viability ([3]; first compound 1 µM)	relative viability ([4]; first compound 0.01 µM)	relative viability ([4]; first compound 0.03162 µM)	relative viability ([4]; first compound 0.1 µM)	relative viability ([4]; first compound 0.3162 µM)	relative viability ([4]; first compound 1 µM)
NCI-H1437	1.23	1.09	0.921	0.344	0.213	0.946	0.963	0.899	0.337	0.19	0.498	0.444	0.275	0.187	0.124	0.914	0.786	0.708	0.512	0.311
NCI-H2170	0.59	0.517	0.295	0.189	0.191	1.2	1.07	0.641	0.394	0.376	0.557	0.558	0.333	0.205	0.197	0.815	0.734	0.487	0.271	0.226
NCI-H441	0.748	0.955	0.464	0.334	0.251	0.767	0.667	0.565	0.359	0.232	0.538	0.608	0.474	0.281	0.245	0.985	0.72	0.534	0.346	0.246
SK-LU-1	1.16	0.788	1.23	0.526	0.332	0.743	0.767	0.335	0.475	0.376	0.163	0.161	0.136	0.113	0.121	0.745	0.701	0.605	0.393	0.292
BEN	0.0642	0.064	0.0538	0.0837	0.0613	0.956	0.531	0.44	0.351	0.31	0.273	0.246	0.205	0.237	0.171	0.614	0.443	0.442	0.327	0.297
LC-2-ad	0.349	0.309	0.163	0.185	0.154	0.429	0.502	0.473	0.384	0.312	0.559	0.683	0.451	0.221	0.321	0.773	0.688	0.705	0.497	0.457
COR-L23	1.01	0.732	0.468	0.229	0.172	0.585	0.738	0.55	0.271	0.169	0.581	0.44	0.309	0.137	0.164	0.505	0.395	0.326	0.169	0.177
NCI-H1650	1.01	1.15	1.07	0.519	0.502	0.919	1.24	1.02	0.518	0.43	0.317	0.302	0.292	0.19	0.265	0.729	0.436	0.521	0.265	0.236
RERF-LC-KJ	0.925	0.838	0.586	0.428	0.333	0.863	0.974	0.756	0.578	0.452	0.946	0.753	0.607	0.284	0.343	0.819	0.665	0.575	0.446	0.384
NCI-H1915	0.853	0.769	0.81	0.757	0.509	0.922	0.822	0.901	0.642	0.422	0.27	0.297	0.281	0.177	0.174	0.486	0.36	0.419	0.284	0.246
NCI-H596	0.975	0.67	0.369	0.288	0.241	1	0.78	0.624	0.322	0.423	0.594	0.516	0.468	0.286	0.301	0.565	0.567	0.441	0.455	0.428
NCI-H2009	1.11	1.14	1.04	0.553	0.323	1.01	1.05	0.832	0.831	0.273	0.301	0.245	0.232	0.175	0.184	0.816	0.798	0.732	0.458	0.395
NCI-H2126	0.801	0.763	0.641	0.487	0.345	0.997	1.02	0.926	0.617	0.494	0.535	0.5	0.464	0.281	0.316	0.82	0.739	0.505	0.496	0.405
LXF-289	0.979	0.995	0.831	0.694	0.529	0.902	0.855	0.807	0.702	0.686	0.191	0.222	0.192	0.118	0.109	0.745	0.754	0.709	0.523	0.515
PC-14	1.15	1.16	1.02	0.405	0.351	1.06	1.02	0.771	0.448	0.21	0.319	0.309	0.199	0.0815	0.0639	0.78	0.606	0.586	0.201	0.125
HOP-62	1.09	1.11	1.17	0.75	0.594	0.837	0.853	0.71	0.387	0.345	0.741	0.554	0.556	0.272	0.171	0.636	0.413	0.587	0.298	0.183
